Reference: US10940159B2, “Combination immediate/delayed release delivery system for short half-life pharmaceuticals including remogliflozin” (priority 2010, dated 2021)
Like-named read-outs stand apart in the source and are kept apart here.

Columns and labels:
[1] = Half-life, absorption window and permeability; format: in vivo; conditions: for half-life: human
[2] = 12 week clinical studies in T2DM, once daily and twice daily dosing; format: in vivo, human
Description: To date, studies have assessed the efficacy, safety and tolerability up to 12 weeks, with varying efficacy so there is a need to characterize the profile of a number of selected formulated doses over a 12-week period. […] However to minimize the time which subjects may have sub-optimal glycemic control, the double blind study medication has been limited to 12 weeks duration. In addition, criteria have been included to allow the introduction of rescue therapy after 6 weeks for those subjects who have a high FP. […] Furthermore, there is evidence that at these doses, there may also be clinically relevant weight loss, a key requirement for new T2DM therapies (20). As doses above 250 mg BID may be associated with relatively small incremental benefits on glycemia and weight loss and there is a trend for better tolerability at lower doses, future studies could have total daily doses less than 500 mg per day. […] It is believed that the primary mechanism for this isolated increase in LDL-c is due a combination of 1) hemoconcentration as a result of the diurectic effect, similar to that seen with diuretics (21, 22) and 2) SGLT2 overnight inhibition. […] Further, a combination IR/SR dose given QD in the morning may also provide meaningful benefits on glycemia and weight loss. From a safety perspective, other than small effects observed on the lipid profile and hematocrit, there was little difference in the safety profile based on the frequency of administration.

[3] = reduced from 9.0%; at mealtime in combination with a sulfonylurea; P<0.0001; cited from earlier work

Row | half-life ([1]; in vivo, read-out: half-life (t½) (converted)) | permeability in the lower portion of the gastrointestinal tract ([1]; in vivo) | LDL-c ([2]; 250 mg and 500 mg bid doses) | LDL-c ([2]; higher QD doses) | hematocrit (surrogate marker for hemoconcentration) ([2]; higher QD doses) | hypoglycemic events ([2]; human, in vivo) | half-life ([1]; in vivo, read-out: half-life) | half-life ([1]; plasma, read-out: half-life (t½) (converted)) | window of absorption ([1]; upper gastrointestinal tract, depending upon food intake, individual differences) | Compound | A1C levels [3]
1 | 1.5 h | intrinsically poor permeability |  |  |  |  |  |  |  | CCOC(=O)OC[C@H]1O[C@@H](Oc2nn(C(C)C)c(C)c2Cc2ccc(OC(C)C)cc2)[C@H](O)[C@@H](O)[C@@H]1O [remogliflozin etabonate, 5-methyl-4-[4-(1-methylethoxy)benzyl]-1-(1-methylethyl)-1H-pyrazol-3-yl 6-O-(ethoxycarbonyl)-β-D-glucopyranoside] | 
2 |  | poor permeability | significant increases | no corresponding increases | increases in hematocrit | very little evidence | 1.5 to 2 h | 1.5 h | 3 to 6 h | Cc1c(Cc2ccc(OC(C)C)cc2)c(O[C@@H]2O[C@H](CO)[C@@H](O)[C@H](O)[C@H]2O)nn1C(C)C [remogliflozin] | 
3 |  |  |  |  |  |  |  |  |  | insulin lispro: rapid-acting insulin analog | 7.1%
